For this series the following is noted: for aqueous solubility: pH 6.8.

From the Biogen ADME set (Fang et al. 2023) come the findings set out here.

Broadly, the aqueous solubility is the dissolved amount per volume that the medium holds. Low values mean little dissolved substance, high ones much dissolved substance.

SMILES strings stand for the structures. In brackets after ≈: the same amount, converted by molar mass. Where only a bound is given, the exact number is not on record here.

For `Cc1cc(C)c(NC(=O)c2ccnc(OC3CCC3)c2)c(C)n1`, the MDR1-MDCK efflux ratio worked out at 1.43; the intrinsic clearance, human liver microsomes was at most 4.74 mL/min/kg; the intrinsic clearance, rat liver microsomes worked out at 54.3 mL/min/kg; the aqueous solubility stood at 36.1 µg/mL (≈ 116 µM).
As to `CC(=O)N[C@H]1CCN(C(=O)N[C@H](C)C(c2ccccc2)c2ccccc2)C1`, the MDR1-MDCK efflux ratio came to 113; the intrinsic clearance, human liver microsomes is 63.6 mL/min/kg; the intrinsic clearance, rat liver microsomes worked out at 825 mL/min/kg.
In the case of `COc1ccc(F)cc1-c1ccc(-c2nnco2)cc1`, the intrinsic clearance, human liver microsomes was 23.8 mL/min/kg and the intrinsic clearance, rat liver microsomes turned out to be 333 mL/min/kg.
As to `Cc1ncn(Cc2noc(-c3ccccc3O)n2)c1C`, the MDR1-MDCK efflux ratio came to 0.643; the intrinsic clearance, human liver microsomes was found to be 19.9 mL/min/kg; the intrinsic clearance, rat liver microsomes was 483 mL/min/kg.
Regarding `c1cnc(-n2cccn2)c(CNC2CCCC2)c1`, the MDR1-MDCK efflux ratio stood at 0.951; the intrinsic clearance, human liver microsomes is at most 4.74 mL/min/kg; the intrinsic clearance, rat liver microsomes was found to be 40.3 mL/min/kg; the aqueous solubility amounted to 30.4 µg/mL (≈ 125 µM).
For the molecule `OC1(c2cccnc2F)CCN(Cc2ccc(-c3ccc(F)cc3)o2)CC1`, the MDR1-MDCK efflux ratio stood at 0.57; the intrinsic clearance, human liver microsomes came out at 18.9 mL/min/kg; the intrinsic clearance, rat liver microsomes came out at 170 mL/min/kg.
For `N#CC1(C(=O)NCC2(C3CC3)CC2)CCCCC1` the same measures were 0.713, 18.9 mL/min/kg and 1080 mL/min/kg.
In the case of `Cc1occc1C(=O)NCC(=O)Nc1nc2cc(Cl)ccc2n1C`, the MDR1-MDCK efflux ratio worked out at 1.31; the intrinsic clearance, human liver microsomes came to 9.49 mL/min/kg; the intrinsic clearance, rat liver microsomes was found to be 195 mL/min/kg; the aqueous solubility was found to be 27.2 µg/mL (≈ 78.4 µM).
For the molecule `N#CCN(C(=O)c1cn(-c2ccc(Br)cc2)cn1)C1CC1`, the MDR1-MDCK efflux ratio turned out to be 1.04; the intrinsic clearance, human liver microsomes was at most 4.74 mL/min/kg; the intrinsic clearance, rat liver microsomes came to 57.3 mL/min/kg; the aqueous solubility was determined as 65.3 µg/mL (≈ 189 µM).
As to `CC(=O)N1CCC(Nc2ncnc3cc(-c4ccc(Br)cc4)sc23)CC1`, the MDR1-MDCK efflux ratio worked out at 5.91; the intrinsic clearance, human liver microsomes is 6.41 mL/min/kg; the intrinsic clearance, rat liver microsomes amounted to 43.2 mL/min/kg; the aqueous solubility turned out to be 10.2 µg/mL (≈ 23.6 µM).
For `O=C1CCCN1C(=O)COc1cccc(-c2nnco2)c1` the same measures were 0.91, at most 4.74 mL/min/kg, 27.5 mL/min/kg and 54.9 µg/mL (≈ 191 µM).
With `O=C(Cc1ccc2c(c1)CCCC2)Nc1ccc(-n2cnnn2)cc1`, the aqueous solubility stood at 0.95 µg/mL (≈ 2.85 µM).
In the case of `COc1ccc(CCn2c(C3CC3)n[nH]c2=O)cc1`, the MDR1-MDCK efflux ratio was found to be 1; the intrinsic clearance, human liver microsomes was 5.56 mL/min/kg; the intrinsic clearance, rat liver microsomes was 366 mL/min/kg; the aqueous solubility was 28.4 µg/mL (≈ 109 µM).
Turning to `CC(C)n1cnnc1-c1cccc(N2Cc3ccc(Br)cc3C2=O)n1`, the MDR1-MDCK efflux ratio came out at 2.6; the intrinsic clearance, human liver microsomes was found to be 6.01 mL/min/kg; the intrinsic clearance, rat liver microsomes is 55.5 mL/min/kg.
For the molecule `Cc1ccccc1COC1CN(C(=O)Cn2c(=O)[nH]c3ccccc32)C1`, the MDR1-MDCK efflux ratio was 7.15; the intrinsic clearance, human liver microsomes worked out at 15.3 mL/min/kg; the intrinsic clearance, rat liver microsomes was determined as 376 mL/min/kg; the aqueous solubility amounted to 45.2 µg/mL (≈ 129 µM).
For `CC(C)(C)c1ccc(C(=O)Nc2ccc(C(=O)Nc3ccccc3)cc2)cc1`, the MDR1-MDCK efflux ratio amounted to 0.455 and the aqueous solubility was determined as 0.4 µg/mL (≈ 1.07 µM).
With `CC1CCN(CC(=O)Nc2nc(-c3c[nH]c4ccccc34)cs2)CC1`, the MDR1-MDCK efflux ratio is 0.826; the intrinsic clearance, human liver microsomes was 37.9 mL/min/kg; the intrinsic clearance, rat liver microsomes worked out at 315 mL/min/kg; the aqueous solubility was determined as 5.19 µg/mL (≈ 14.6 µM).
The like results for `Fc1ccc(F)c(-c2nc(C3CCOCC3)nn2-c2cccnc2)c1` were, in that order, 1.33, at most 4.74 mL/min/kg, 72.8 mL/min/kg and 35.1 µg/mL (≈ 103 µM).
With `Cc1cccc2ncn(CCc3ncc[nH]3)c(=O)c12`, the MDR1-MDCK efflux ratio came to 6.44; the intrinsic clearance, human liver microsomes was at most 4.74 mL/min/kg; the intrinsic clearance, rat liver microsomes was 2240 mL/min/kg.
For `OC(Cn1cncn1)(Cn1cncn1)c1ccc(F)cc1F`, the MDR1-MDCK efflux ratio is 5.25; the intrinsic clearance, human liver microsomes is at most 4.74 mL/min/kg; the intrinsic clearance, rat liver microsomes was at most 10.7 mL/min/kg; the aqueous solubility was 42.9 µg/mL (≈ 140 µM).
The molecule `CC(=O)N1CCCN(Cc2ccc(C(=O)N3CCCC3)cc2)c2ccccc21` returned an intrinsic clearance, human liver microsomes of 227 mL/min/kg and an intrinsic clearance, rat liver microsomes of 327 mL/min/kg.
On to `CC(=O)N1CCN(CCNC(=O)N2CCc3sccc3C2)CC1`, for which the MDR1-MDCK efflux ratio came out at 30.4; the intrinsic clearance, human liver microsomes came to 10.1 mL/min/kg; the intrinsic clearance, rat liver microsomes came to 74.2 mL/min/kg; the aqueous solubility was found to be 55.8 µg/mL (≈ 166 µM).
`O=c1c2oc3ccccc3c2ncn1Cc1ccc(F)c(F)c1`: the MDR1-MDCK efflux ratio worked out at 0.537; the intrinsic clearance, human liver microsomes came out at 81.2 mL/min/kg; the intrinsic clearance, rat liver microsomes came to 788 mL/min/kg.
As for `Cc1cccn(Cc2ccccc2F)c1=O`, the MDR1-MDCK efflux ratio came to 0.634; the intrinsic clearance, human liver microsomes is at most 4.74 mL/min/kg; the intrinsic clearance, rat liver microsomes amounted to 60.7 mL/min/kg; the aqueous solubility came out at 28.2 µg/mL (≈ 130 µM).
With `Oc1c(C(c2ccc(F)cc2)N2CCCCC2)ccc2cccnc12` (stereo not drawn), the intrinsic clearance, human liver microsomes worked out at 35.1 mL/min/kg and the intrinsic clearance, rat liver microsomes was found to be 382 mL/min/kg.
For `Cc1cc(N(C)CC(C)(C)O)ncc1Br` the same measures were 36.1 mL/min/kg and 970 mL/min/kg.
Consider `COc1cc2nc(CN3CCC(CO)CC3)[nH]c(=O)c2cc1OC`, for which the MDR1-MDCK efflux ratio was found to be 29; the intrinsic clearance, human liver microsomes was at most 4.74 mL/min/kg; the intrinsic clearance, rat liver microsomes was at most 10.7 mL/min/kg.
The like results for `CCCNS(=O)(=O)Nc1ncnc(OCCOc2ncc(Br)cn2)c1-c1ccc(Br)cc1` were, in that order, 0.933, 101 mL/min/kg and 631 mL/min/kg.
Regarding `O=C(Cn1ccnc1)NCc1ccccc1F`, the intrinsic clearance, human liver microsomes was at most 4.74 mL/min/kg; the intrinsic clearance, rat liver microsomes was at most 10.7 mL/min/kg; the aqueous solubility turned out to be 48.8 µg/mL (≈ 209 µM).
`Cc1ccc(C)c(-n2c(S)nnc2-c2ccc(O)cc2)c1`: the MDR1-MDCK efflux ratio is 31.1; the intrinsic clearance, human liver microsomes worked out at 5.5 mL/min/kg; the intrinsic clearance, rat liver microsomes was found to be 164 mL/min/kg; the aqueous solubility came out at 22.1 µg/mL (≈ 74.1 µM).
For the molecule `Cn1nc(N)c2ccc(Br)cc21`, the MDR1-MDCK efflux ratio stood at 0.72; the intrinsic clearance, human liver microsomes worked out at 24 mL/min/kg; the intrinsic clearance, rat liver microsomes turned out to be 94.8 mL/min/kg.
Take `COc1ccc(C(=O)Nc2cc(-c3ccc(F)c(F)c3)no2)cc1`: the MDR1-MDCK efflux ratio was 0.43 and the aqueous solubility came out at 0.35 µg/mL (≈ 1.06 µM).
With `CN(Cc1c(F)cccc1Cl)C(=O)c1ccc(-n2ccnc2)nc1`, the MDR1-MDCK efflux ratio turned out to be 0.625; the intrinsic clearance, human liver microsomes worked out at 26.3 mL/min/kg; the intrinsic clearance, rat liver microsomes turned out to be 1660 mL/min/kg; the aqueous solubility turned out to be 54.1 µg/mL (≈ 157 µM).
For `CCOc1cccc(NS(C)(=O)=O)n1`, the MDR1-MDCK efflux ratio is 0.969; the intrinsic clearance, human liver microsomes was at most 4.74 mL/min/kg; the intrinsic clearance, rat liver microsomes was at most 10.7 mL/min/kg.
With `Cc1cc(CCCC(=O)NC[C@H]2CC[C@H](c3ccc(C(N)=O)c(C)n3)CC2)ccc1F`, the MDR1-MDCK efflux ratio turned out to be 33.3; the intrinsic clearance, human liver microsomes worked out at 214 mL/min/kg; the intrinsic clearance, rat liver microsomes worked out at 808 mL/min/kg; the aqueous solubility was determined as 3.18 µg/mL (≈ 7.47 µM).
With `CCCCOc1nc(N)c2c(n1)N(Cc1cccc(CN3CCCC3)c1)CC(=O)N2`, the MDR1-MDCK efflux ratio was found to be 5.49; the intrinsic clearance, human liver microsomes stood at 113 mL/min/kg; the intrinsic clearance, rat liver microsomes was determined as 1870 mL/min/kg.
The like results for `CN(C)S(=O)(=O)CCCN1CCC(CCC(N)=O)CC1` were, in that order, 0.425, at most 4.74 mL/min/kg and at most 10.7 mL/min/kg.
Take `COc1ccccc1CC(=O)NC1CCN(C)CC1`: the MDR1-MDCK efflux ratio came to 6.13; the intrinsic clearance, human liver microsomes is at most 4.74 mL/min/kg; the intrinsic clearance, rat liver microsomes came out at 54.6 mL/min/kg; the aqueous solubility was 43.2 µg/mL (≈ 165 µM).
In the case of `Cc1ncsc1-c1nc(CNc2cc(F)cc(F)c2)no1`, the intrinsic clearance, human liver microsomes is 65.7 mL/min/kg and the intrinsic clearance, rat liver microsomes is 661 mL/min/kg.
Consider `COC(=O)c1cccc2c1CCCN2C(=O)c1ccccc1`, for which the MDR1-MDCK efflux ratio came out at 0.474; the intrinsic clearance, human liver microsomes is 780 mL/min/kg; the intrinsic clearance, rat liver microsomes turned out to be 2050 mL/min/kg.
Take `CCOc1ncccc1-c1cc(Cl)ccc1O`: the MDR1-MDCK efflux ratio was determined as 0.595; the intrinsic clearance, human liver microsomes stood at 59.9 mL/min/kg; the intrinsic clearance, rat liver microsomes was 654 mL/min/kg; the aqueous solubility turned out to be 22.7 µg/mL (≈ 90.9 µM).
For the molecule `Cc1nn(C)c(C)c1-c1cc(C(C)(C)C)nc(N2CCN(C)CC2)n1`, the MDR1-MDCK efflux ratio is 1.81; the intrinsic clearance, human liver microsomes turned out to be 17.5 mL/min/kg; the intrinsic clearance, rat liver microsomes came to 4620 mL/min/kg.
Take `O=C(C(c1ccccc1)c1ccccc1)N1CCOCC(Cc2ccc3cnccc3c2)C1` (stereo not drawn): the MDR1-MDCK efflux ratio was 1.97; the intrinsic clearance, human liver microsomes came to 404 mL/min/kg; the intrinsic clearance, rat liver microsomes was 653 mL/min/kg; the aqueous solubility stood at 35.3 µg/mL (≈ 80.9 µM).
The like results for `Cc1nc(C(C)C)sc1C(=O)Nc1nc(C(C)(C)C)cs1` were, in that order, 0.306, 27.8 mL/min/kg, 398 mL/min/kg and 11.8 µg/mL (≈ 36.4 µM).
Regarding `Cc1nc(NCc2ccc(F)cc2)n(C)n1`, the MDR1-MDCK efflux ratio came to 0.975; the intrinsic clearance, human liver microsomes is at most 4.74 mL/min/kg; the intrinsic clearance, rat liver microsomes is at most 10.7 mL/min/kg.
Consider `Cc1c(C(=O)N2CCC(C(=O)Nc3ccc4c(c3)OCO4)CC2)oc2c(F)cccc12`, for which the MDR1-MDCK efflux ratio was 0.872; the intrinsic clearance, human liver microsomes turned out to be 58.3 mL/min/kg; the intrinsic clearance, rat liver microsomes came out at 545 mL/min/kg; the aqueous solubility came to 11 µg/mL (≈ 26 µM).
`CCN(CC)C(=O)c1ccc(C2=CC3(CCNCC3)Oc3cccc(O)c32)cc1`: the MDR1-MDCK efflux ratio is 20.9; the intrinsic clearance, human liver microsomes turned out to be 9 mL/min/kg; the intrinsic clearance, rat liver microsomes came out at 65.8 mL/min/kg.
